We go through ten molecules from patent publication US5041552A, “Amino acid derivatives with angiotensin II antagonist properties” (Warner-Lambert Company, priority 1990, dated 1991).

Each structure is given as a SMILES string.

This experiment deals with T1, angiotensin II receptor (rat liver membranes) (Rattus norvegicus, UniProt P25095).
T1 construct: rat liver membranes; from tissue; host or cells: rat liver membranes
T1 sequence (P25095 1-359): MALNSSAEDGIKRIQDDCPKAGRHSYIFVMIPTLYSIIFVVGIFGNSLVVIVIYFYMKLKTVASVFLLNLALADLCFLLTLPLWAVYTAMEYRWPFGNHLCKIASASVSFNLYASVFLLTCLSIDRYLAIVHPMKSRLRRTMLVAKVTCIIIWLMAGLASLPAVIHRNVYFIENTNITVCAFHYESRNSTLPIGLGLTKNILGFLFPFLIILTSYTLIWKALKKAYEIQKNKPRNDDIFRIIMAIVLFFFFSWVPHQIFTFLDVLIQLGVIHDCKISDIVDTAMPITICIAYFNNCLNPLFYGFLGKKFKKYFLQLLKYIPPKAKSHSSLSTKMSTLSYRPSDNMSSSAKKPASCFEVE
As to the kind of experiment: Receptor Binding of Angiotensin II (RBAT): inhibition of tritiated angiotensin II binding to rat liver membranes. The settings on record: in vitro, read-out: RBAT IC50 (concentration required to displace 50% of the specifically bound tritiated angiotensin II). The procedure: The effectiveness of the compounds of the instant invention is determined by a test (RBAT) entitled Receptor Binding of Angiotensin II. In this in vitro test the inhibition of tritiated angiotensin II binding to rat liver membranes is measured.
*The IC50 is a concentration required to displace 50% of the specifi
bound tritiated angiotensin II.
With `CCCCc1nc(Cl)c(CO)n1Cc1ccc(NC(=O)[C@H](CC#N)NC(=O)OCc2ccccc2)cc1` [Example 5, (S)-[2-[[4-[[2-Butyl-4-chloro-5-(hydroxymethyl)-1H-imidazol-1-yl]methyl]phenyl]amino]-1-(cyanomethyl)-2-oxoethyl]-carbamic acid, phenylmethyl ester], the IC50 turned out to be 3 µM.
The figure for `CCCCc1nc(Cl)c(CO)n1Cc1ccc(NC(=O)[C@H](Cc2ccccc2)NS(=O)(=O)c2ccccc2)cc1` [Example 17] is 3.6 µM.
The figure for `CCCCc1nc(Cl)c(CO)n1Cc1ccc(NC(=O)[C@H](CC(=O)OC(C)(C)C)NC(=O)OCc2ccccc2)cc1` [Example 7] is 4 µM; for `CCCCc1ncc(CO)n1Cc1ccc(NC(=O)[C@H](Cc2ccc(O)cc2)NC(=O)OC(C)(C)C)cc1` [Example 6, (S)-[2-[[4-[[2-butyl-5-(hydroxymethyl)-1H-imidazol-1-yl]methyl]phenyl]amino]-1-[(4-hydroxyphenyl)methyl]-2-oxoethyl]-carbamic acid, 1,1-dimethylethylester] it is 4.5 µM; for `CCCCc1nc(Cl)c(CO)n1Cc1ccc(NC(=O)[C@H](Cc2ccccc2)NS(=O)(=O)N2CCOCC2)cc1` [Example 16] it is 2.5 µM.
With `CCCCc1nc(Cl)c(CO)n1Cc1ccc(NC(=O)N2CCC[C@H]2C(=O)OC)cc1` [Example 18, 1-[[4-[[2-Butyl-4-chloro-5-(hydroxymethyl)-1H-imidazol-1-yl]methyl]phenyl]amino]carbonyl-2-pyrrolidinecarboxylic acid, methyl ester], the IC50 was greater than 10 µM.
The figure for `CCCCc1nc(Cl)c(CO)n1Cc1ccc(NC(=O)C(NC(=O)OCc2ccccc2)C(=O)O)cc1` (racemic) [Example 13, (RS)-3-[[4-[[2-Butyl-4-chloro-5-(hydroxymethyl)-1H-imidazol-1-yl-methyl]phenyl]amino]-3-oxo-2[(phenyl-methoxy)-carbonyl]amino]-propanoic acid] is 10 µM.
The value for `CCCCc1nc(Cl)c(CO)n1Cc1ccc(NC(=O)C(NC(=O)OC(C)(C)C)C(=O)O)cc1` (racemic) [Example 11] was 6 µM; that for `CCSc1nnc(CO)n1Cc1ccc(NC(=O)[C@H](CC(=O)O)NC(=O)OCc2ccccc2)cc1` [Example 9] was greater than 10 µM; that for `CCCCc1nc(Cl)c(CO)n1Cc1ccc(NC(=O)[C@H](Cc2ccc(O)cc2)NC(=O)OC(C)(C)C)cc1` [6 (4-Chloro), (S)-[2-[[4-[[2-Butyl-4-chloro-5-(hydroxymethyl)-1H-imidazol-1-yl]methyl]phenyl]amino]-1-[(4-hydroxyphenyl)methyl]-2-oxoethyl]-carbamic acid, 1,1-dimethylethyl ester] was 3 µM.
